Measured values from patent publication US20140275257A1, “N-ACETYL CYSTEINE COMPOSITIONS IN THE TREATMENT OF SYSTEMIC LUPUS ERYTHEMATOSUS” (Foundation for the State University of New York, priority 2013, published 2014).

Columns and labels:
[1] = system: SLE patients; test: Fatigue Assessment Scale (FAS) in NAC pilot study; type: in vivo, human; conditions: for FAS: all NAC doses combined, visit 1 28.5
Source text: Fatigue, a nonspecific symptom that is highly prevalent among patients in primary care, is not only an important component of many diseases or disorders, including SLE, but can also play a substantial role in healthy populations. Fatigue is considered the most disabling symptom in a majority of SLE patients. (Krupp, L. B. et al., “A study of fatigue in systemic lupus erythematosus,” J. Rheumatol., 17: 1450-1452 (1990)). The Fatigue Assessment Scale (FAS) is a 10-item unidimensional subjective fatigue scale that measures chronic fatigue. For each statement, one chooses one out of five answer categories varying from “never” to “always: 1=never; 2=sometimes; 3=regularly; 4=often; and 5=always. (Michielsen, H. J. et al., “Psychometric qualities of a brief self-rated fatigue measure: The Fatigue Assessment Scale,” Journal of Psychosomatic Research, 54: 345-352 (2003)).
Fatigue was assessed by using a validated Fatigue Assessment Scale (FAS), a self-questionnaire that provides a subjective measurement of fatigue severity and has shown to have a high degree of internal consistency, validity, and sensitivity to changes in clinical condition, as described in Michielsen, H. J. et al., “Psychometric qualities of a brief self-rated fatigue measure: The Fatigue Assessment Scale,” J. Psychosom. Res., 54(4): 345-352 (2003), the entire content of which is incorporated by reference herein.
(§1) Lupus disease activity was measured by SLEDAI and BILAG and fatigue was evaluated by FAC at baseline (visit 1) as well as monthly during a 3-month intervention (visits 2-4) and after a 1-month washout period (visit 5).

[2] = system: SLE patients; test: SLE Disease Activity Index (SLEDAI) in NAC pilot study; type: in vivo, human
Source text: SLEDAI offers an assessment tool for assessing disease activity in SLE. Twenty-four features that are attributed to lupus are listed, with a weighted score given to any one that is present. The more serious manifestations (such as renal, neurologic, and vasculitis) are weighted more than others (such as cutaneous manifestations). The maximum possible score is 105. (Lam, G. K. W. and Petri, M., “Assessment of systemic lupus erthematosus,” Clin. Exp. Rheumatol., 23 (Supp. 39): S120-S132 (2005)).
A complete physical examination of the cardiovascular, respiratory, gastrointestinal, musculoskeletal, neurological systems, skin, head, neck, sinuses, nasal and oral cavities were performed at each visit. SLE disease activity was assessed by using the British Isles Lupus Assessment Group (BILAG) (Isenberg, D. A. et al., “BILAG 2004. Development and initial validation of an updated version of the British Isles Lupus Assessment Group's disease activity index for patients with systemic lupus erythematosus,” Rheumatology 44(7): 902-906 (2005)) and SLE Disease Activity Index (SLEDAI) (Bombardier, C. et al., “Derivation of the SLEDAI. A disease activity index for lupus patients,” Arth. Rheum., 35: 630-640 (1992)). The concurrent use and dosage of prednisone and other medications were documented.
as §1
Overall clinical effectiveness of NAC relative to placebo was analyzed with multilevel modeling as implemented in the STATA routine XTMIXED (from StataCorp, College Station, Tex.), with the three nested levels being drug group, subject within drug group and study visit within subject. All models included fixed effects for drug group, study visit and the drug group by study visit interaction along with random intercepts at each design level. […] The reduction in lupus disease activity SLEDAI scores was greater for the NAC than placebo group, as indicated by a significant visit by drug interaction (z=−2.14, p=0.033). The reduction in BILAG scores was also greater for NAC than placebo group. The overall effect was statistically significant as indicated by a significant visit by drug interaction (z=−2.62, p=0.009). Two tailed paired t-test was used to assess the effects of placebo and of each and all NAC doses on clinical indices and biomarkers recorded on visits 2-5 relative to visit 1; p<0.05 was considered significant. Patients and controls were compared with two-tailed unpaired t-test.

[3] = molecular target: mTOR (Homo sapiens, UniProt P42345); conditions: O'Loghlen et al. (2006); cited from earlier work
[4] = system: murine lupus (female NZB×NZW F1 mouse model); conditions: Suwannaroj et al. (2001); cited from earlier work
[5] = system: FoxP3; test: FoxP3 expression in T-cell subsets by flow cytometry; type: in vivo, human
Method: Foxp3 expression was measured in permeabilized cells using Alexa-647-conjugated antibody from BioLegend (San Diego, Calif.; cat No 320014). Up to 11 parameters were recorded simultaneously using a Becton Dickinson LSRII flow cytometer equipped with 20 mW solid-state Nd-YAG (emission at 355 nm), 20 mW argon (emission at 488 nm), 10 mW diode pumped solid state yellow-green (emission 561 nm) and 16 mW heliumneon lasers (emission at 634 nm). Each patient's cells were processed and analyzed in parallel with a matched control. […] FIG. 5A: FoxP3 expression in CD4^+/CD25^+ and CD8^+/CD25^+ T cell subsets of lupus and control donors matched for age, gender, and ethnicity by flow cytometry. Red and blue values indicate percentage of FoxP3^+ cells in lupus and control donors, respectively. FIG. 5B: Cumulative analysis of FoxP3 expression in CD25^+ T-cell subsets in lupus subjects and matched controls. p values reflect comparison with two-tailed unpaired t-test. FIG. 5C: Effect of NAC on Foxp3 expression in CD25^+ T cell subsets of lupus patients exposed to all doses considered together. p values reflect comparison with two-tailed paired t-test.

[6] = system: DN T cells; test: T-cell subset analysis by flow cytometry (DN T cells); type: in vivo, human; conditions: after 3 months; baseline 6.2±0.5%; p=0.043
Method: Unstimulated cells and cells stimulated with CD3/CD28 for 16 h were examined and cell death pathway selection in T cells was measured by concurrent staining with annexin V-Alexa 647 and propidium iodide (PrI) as well as cell type-specific antigens. T-cell subsets were analyzed by staining with antibodies to CD4, CD8, and CD25. B cells were identified by CD 19 staining

CC(=O)N[C@@H](CS)C(=O)O [NAC, N-acetyl-L-cysteine]
effect on SLE disease activity, FAS ([1]; NAC dose 1 (1.2 g/day)): did not influence
effect on FAS ([1]; NAC dose 2 (2.4 g/day) and dose 3 (4.8 g/day), after 2 months (p=0.002) and 3 months (p=0.004)): reduced
effect on FAS relative to placebo (mixed model analysis) ([1]; NAC dosing group 2, XTMIXED z=−2.08, p=0.038): reduction
FAS ([1]; visit 3 (2 months), p=0.0006): 24.1
FAS ([1]; visit 4 (3 months), p=0.005): 23.9
FAS ([1]; visit 5 (after 1 month washout), p=0.034): 24.8
patients with significant improvement (SLEDAI) ([2]; Dose 1 group, placebo 2 of 9): 3 of 9
patients with significant improvement (SLEDAI) ([2]; Dose 2 group, placebo 2 of 9): 4 of 9
patients with significant improvement (SLEDAI) ([2]; Dose 3 group, improvements of SLEDAI of 3 or more, p=0.0406 relative to placebo): 5 of 6
effect on SLE disease activity, SLEDAI ([2]; NAC dose 1 (1.2 g/day)): did not influence
SLEDAI ([2]; NAC doses 2 and 3 combined, visit 2 (1 month), baseline 5.78, p=0.0007): 3.6
SLEDAI ([2]; NAC doses 2 and 3 combined, visit 3 (2 months), baseline 5.78, p=0.0009): 4.0
SLEDAI ([2]; NAC doses 2 and 3 combined, visit 4 (3 months), baseline 5.78, p=0.0030): 4.9
SLEDAI ([2]; NAC doses 2 and 3 combined, visit 5 (after 1 month washout), baseline 5.78, p=0.0046): 4.4
SLEDAI ([2]; all patients treated with NAC, after 1-month (visit 2), baseline 5.3, p=0.0013): 3.5
SLEDAI ([2]; all patients treated with NAC, after 2-month treatment (visit 3), baseline 5.3, p=0.048): 3.7
reduction in SLEDAI relative to placebo (multilevel modeling) ([2]; visit by drug interaction, XTMIXED z=−2.14, p=0.033): greater in the NAC than placebo group
effect on mTOR in vitro [3]: inhibits
outcome of murine lupus in vivo [4]: improves the outcome
CD4+/CD25+/FoxP3+ T cells ([5]; 4.8 g/day NAC, after 2 months, baseline 3.2±0.6%, p=0.018): 5.2±0.9%
FoxP3 expression in CD25+ DN T cells ([5]; after 2-month NAC treatment, baseline 1.29±0.23%, p=0.0160): 2.24±0.38%
percentage of FoxP3+ cells within the CD4+/CD25+ T-cell compartment ([5]; all NAC-treated patients, p=0.045): increased
DN T-cell frequency [6]: 5.3±0.5%
